Activity calls are given as the source filed them.
Tests used:
[1] = target: Dual specificity tyrosine-phosphorylation-regulated kinase 1A (Rattus norvegicus, UniProt Q63470); format: biochemical, Homo sapiens
[2] = test system: HT-1080; assay: cytotoxicity in HT1080 fibrosarcoma cells, cell-based, fluorescence readout (AID 620); format: functional; details: Homo sapiens
[3] = target: Luciferin 4-monooxygenase (Photinus pyralis, UniProt P08659); assay: Counter Screen for Luciferase-based Assay Positives. [Related pubchem assays: 620, 618, 411 ]
[4] = target: FAD-linked sulfhydryl oxidase ALR (Homo sapiens, UniProt P55789); assay: inhibitors of human ALR sulfhydryl oxidase, dose response, biochemical, H2O2 detection, luminescence, cherry-pick (AID 493248)
[5] = target: Prothrombin (Homo sapiens, UniProt P00734); assay: Thrombin 1536 HTS Dose Response Confirmation. [Related pubchem assays: 1046 (Thrombin 1536 HTS; hits were confirmed in this assay)]; format: functional
[6] = cells; format: functional, cell-based
[7] = cells; format: functional, cell-based; remark: listed apart in the source
[8] = target: Estrogen receptor beta (Homo sapiens, UniProt Q92731);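 note: recombinant ER-beta bound to coactivator SRC1 peptide in presence of estradiol agonist; inhibitors block coactivator peptide binding and lower the FRET signal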
[9] = test system: HeLa; assay: HeLa cell cytotoxicity, dose response, cytotoxicity control for MITF activator project, CellTiter-Glo luminescence, cherry-pick samples (AID 540259); format: functional, cell-based; details: Homo sapiens
[10] = target: Major prion protein (Homo sapiens, UniProt P04156); format: functional, cell-based
[11] = cells
[12] = test system: H4; assay: Luminescence Cell-Based Dose Response HTS to Identify Activators of 5'UTR Stem-Loop Driven Prion Protein mRNA Translation in H4 Neuroglioblastoma Cells. [Related pubchem assays: 1829 (Project Summary), 1814 (Primary HTS)]; format: functional; details: Homo sapiens
[13] = HepG2 cell cytotoxicity, dose response, cytotoxicity control for non-replicating M. tuberculosis project (AID 489018); format: functional; details: Mycobacterium tuberculosis
[14] = THP-1 cell cytotoxicity, dose response, cytotoxicity control for non-replicating M. tuberculosis project (AID 489025); format: functional

In the case of `N#C/C(=C/c1ccc(O)c([N+](=O)[O-])c1)C(=O)Nc1ccccc1`, the AC50 [1] was 1.11 µM (active).
For `Cc1ccc2[nH]c(-c3cccc(N)c3)nc2c1`, the EC50 [2] was 20.6 µM (active), the EC50 [3] was 0.49 µM (active) and the AC50 [4] was 0.838 µM (active).
With `Cc1c(-c2cccs2)[n+]([O-])c2c([n+]1[O-])CCC2` the IC50 [5] was > 50 µM (not active).
In the case of `CC(C)CC(NC(=O)c1ccccc1NC(=O)c1ccccc1)C(=O)O` (stereo not drawn), the EC50 [6] was > 350 µM (not active) and the EC50 [7] was > 350 µM (not active).
For `O=C1C2C3C=CC(C3)C2C(=O)N1c1cccc2cccnc12` (stereo not drawn), the IC50 [8] was 21.4 µM (active).
With `Cc1ccc(C(=O)Nc2nc3c(s2)CCCC3)o1` the EC50 [2] was > 50 µM (not active) and the EC50 [3] was > 100 µM (not active).
In the case of `COc1ccc(C2=NN(c3ccccc3)C(c3ccc(OC)c(OC)c3)C2)cc1` (stereo not drawn), the AC50 [9] was 52 µM (active).
For `Cc1cnc(NC(=O)c2cc(S(=O)(=O)N(C)C)ccc2N2CCCC2)s1`, the IC50 [10] was 2.87 µM (active) and the IC50 [11] was > 138 µM (inactive).
With `CCOC(=O)COc1cc(Br)c(/C=N/Nc2ccccc2)cc1OC` the IC50 [10] was 16.4 µM (inactive) and the IC50 [11] was > 138 µM (inactive).
With `O=C(Nc1nc2ccccc2[nH]1)c1ccccc1` the EC50 [2] was > 50 µM (not active) and the EC50 [3] was < 0.2 µM (active).
For `CC(C)(C)c1cc(NC(=O)Nc2ccccc2)no1`, the EC50 [12] was > 120 µM (not active) and the AC50 [9] was > 350 µM (inactive).
In the case of `C/C(=N\OCc1ccc(C#N)cc1)c1ccc(S(=O)(=O)N(C)C)cc1`, the AC50 [9] was 147 µM (active).
For `COc1ccc(C(=O)NNC2=C(C(=O)C(F)(F)F)CCC2)cc1`, the CC50 [13] was > 20 µM (active) and the CC50 [14] was 18.1 µM (active).
For `O=c1c2c(O)cc(O)cc2oc2ccc(O)c(O[C@@H]3O[C@H](CO)[C@@H](O)[C@H](O)[C@H]3O[C@H]3O[C@H](CO)[C@@H](O)[C@H](O)[C@H]3O)c12`, the AC50 [1] was 3.69 µM (active).
